# Measurements taken from PMC6394493 (Cancer Chemotherapy and Pharmacology, 2018).
# Test: Safety assessment: adverse events
# Format: in vivo, Japanese patients
# Conditions: for Blood alkaline phosphatase increased, All grades / Blood alkaline phosphatase increased, Grade ¾ / Cancer pain, All grades / Cancer pain, Grade ¾ / Decreased appetite, All grades / Decreased appetite, Grade ¾ / Diarrhea, All grades / Diarrhea, Grade ¾ / Dysgeusia, All grades / Dysgeusia, Grade ¾ / Fatigue, All grades / Fatigue, Grade ¾ / Leukopenia, All grades / Leukopenia, Grade ¾ / Lymphopenia, All grades / Lymphopenia, Grade ¾ / Nausea, All grades / Nausea, Grade ¾ / Neutropenia, All grades / Neutropenia, Grade ¾ / Pyrexia, All grades / Pyrexia, Grade ¾ / Rash, All grades / Rash, Grade ¾ / Stomatitis, All grades / Stomatitis, Grade ¾ / Thrombocytopenia, All grades / Thrombocytopenia, Grade ¾ / Vomiting, All grades / Vomiting, Grade ¾ / AEs Total, All grades / AEs Total, Grade ¾ / Alanine aminotransferase increased, All grades / Alanine aminotransferase increased, Grade ¾: regardless of study drug relationship
# Excerpt: Safety assessments consisted of monitoring and recording of all AEs, including laboratory abnormalities and vital signs. DLTs were defined as an AE or a laboratory abnormality assessed as related to the study drug and occurring within the first 28 days of treatment (Cycle 1), as defined in Supplemental Table S1.
compound,measurement,setting,value
Cn1c(=O)n(-c2ccc(C(C)(C)C#N)cc2)c2c3cc(-c4cnc5ccccc5c4)ccc3ncc21 [BEZ235],"Blood alkaline phosphatase increased, All grades",qd 1000 mg (n = 8),2 (25.0) n (%)
same,"Blood alkaline phosphatase increased, Grade ¾",qd 1000 mg (n = 8),0 n (%)
same,"Cancer pain, All grades",qd 1000 mg (n = 8),2 (25.0) n (%)
same,"Cancer pain, Grade ¾",qd 1000 mg (n = 8),0 n (%)
same,"Decreased appetite, All grades",qd 1000 mg (n = 8),7 (87.5) n (%)
same,"Decreased appetite, Grade ¾",qd 1000 mg (n = 8),0 n (%)
same,"Diarrhea, All grades",qd 1000 mg (n = 8),7 (87.5) n (%)
same,"Diarrhea, Grade ¾",qd 1000 mg (n = 8),0 n (%)
same,"Dysgeusia, All grades",qd 1000 mg (n = 8),2 (25.0) n (%)
same,"Dysgeusia, Grade ¾",qd 1000 mg (n = 8),0 n (%)
same,"Fatigue, All grades",qd 1000 mg (n = 8),6 (75.0) n (%)
same,"Fatigue, Grade ¾",qd 1000 mg (n = 8),1 (12.5) n (%)
same,"Leukopenia, All grades",qd 1000 mg (n = 8),2 (25.0) n (%)
same,"Leukopenia, Grade ¾",qd 1000 mg (n = 8),1 (12.5) n (%)
same,"Lymphopenia, All grades",qd 1000 mg (n = 8),2 (25.0) n (%)
same,"Lymphopenia, Grade ¾",qd 1000 mg (n = 8),2 (25.0) n (%)
same,"Nausea, All grades",qd 1000 mg (n = 8),7 (87.5) n (%)
same,"Nausea, Grade ¾",qd 1000 mg (n = 8),0 n (%)
same,"Neutropenia, All grades",qd 1000 mg (n = 8),1 (12.5) n (%)
same,"Neutropenia, Grade ¾",qd 1000 mg (n = 8),1 (12.5) n (%)
same,"Pyrexia, All grades",qd 1000 mg (n = 8),2 (25.0) n (%)
same,"Pyrexia, Grade ¾",qd 1000 mg (n = 8),0 n (%)
same,"Rash, All grades",qd 1000 mg (n = 8),5 (62.5) n (%)
same,"Rash, Grade ¾",qd 1000 mg (n = 8),1 (12.5) n (%)
same,"Stomatitis, All grades",qd 1000 mg (n = 8),3 (37.5) n (%)
same,"Stomatitis, Grade ¾",qd 1000 mg (n = 8),0 n (%)
same,"Thrombocytopenia, All grades",qd 1000 mg (n = 8),4 (50.0) n (%)
same,"Thrombocytopenia, Grade ¾",qd 1000 mg (n = 8),0 n (%)
same,"Vomiting, All grades",qd 1000 mg (n = 8),4 (50.0) n (%)
same,"Vomiting, Grade ¾",qd 1000 mg (n = 8),0 n (%)
same,"AEs Total, All grades",qd 1200 mg (n = 6),6 (100.0) n (%)
same,"AEs Total, Grade ¾",qd 1200 mg (n = 6),6 (100.0) n (%)
same,"Alanine aminotransferase increased, All grades",qd 1200 mg (n = 6),1 (16.7) n (%)
same,"Alanine aminotransferase increased, Grade ¾",qd 1200 mg (n = 6),0 n (%)
same,"Blood alkaline phosphatase increased, All grades",qd 1200 mg (n = 6),1 (16.7) n (%)
same,"Blood alkaline phosphatase increased, Grade ¾",qd 1200 mg (n = 6),1 (16.7) n (%)
same,"Cancer pain, All grades",qd 1200 mg (n = 6),1 (16.7) n (%)
same,"Cancer pain, Grade ¾",qd 1200 mg (n = 6),0 n (%)
same,"Decreased appetite, All grades",qd 1200 mg (n = 6),6 (100.0) n (%)
same,"Decreased appetite, Grade ¾",qd 1200 mg (n = 6),1 (16.7) n (%)
same,"Diarrhea, All grades",qd 1200 mg (n = 6),6 (100.0) n (%)
same,"Diarrhea, Grade ¾",qd 1200 mg (n = 6),0 n (%)
same,"Dysgeusia, All grades",qd 1200 mg (n = 6),3 (50.0) n (%)
same,"Dysgeusia, Grade ¾",qd 1200 mg (n = 6),0 n (%)
same,"Fatigue, All grades",qd 1200 mg (n = 6),4 (66.7) n (%)
same,"Fatigue, Grade ¾",qd 1200 mg (n = 6),2 (33.3) n (%)
same,"Leukopenia, All grades",qd 1200 mg (n = 6),1 (16.7) n (%)
same,"Leukopenia, Grade ¾",qd 1200 mg (n = 6),0 n (%)
same,"Lymphopenia, All grades",qd 1200 mg (n = 6),1 (16.7) n (%)
same,"Lymphopenia, Grade ¾",qd 1200 mg (n = 6),1 (16.7) n (%)
same,"Nausea, All grades",qd 1200 mg (n = 6),5 (83.3) n (%)
same,"Nausea, Grade ¾",qd 1200 mg (n = 6),0 n (%)
same,"Neutropenia, All grades",qd 1200 mg (n = 6),2 (33.3) n (%)
same,"Neutropenia, Grade ¾",qd 1200 mg (n = 6),0 n (%)
same,"Pyrexia, All grades",qd 1200 mg (n = 6),2 (33.3) n (%)
same,"Pyrexia, Grade ¾",qd 1200 mg (n = 6),0 n (%)
same,"Rash, All grades",qd 1200 mg (n = 6),1 (16.7) n (%)
same,"Rash, Grade ¾",qd 1200 mg (n = 6),1 (16.7) n (%)
same,"Stomatitis, All grades",qd 1200 mg (n = 6),6 (100.0) n (%)
same,"Stomatitis, Grade ¾",qd 1200 mg (n = 6),1 (16.7) n (%)
same,"Thrombocytopenia, All grades",qd 1200 mg (n = 6),0 n (%)
same,"Thrombocytopenia, Grade ¾",qd 1200 mg (n = 6),0 n (%)
same,"Vomiting, All grades",qd 1200 mg (n = 6),5 (83.3) n (%)
same,"Vomiting, Grade ¾",qd 1200 mg (n = 6),0 n (%)
same,"AEs Total, All grades",qd 1400 mg (n = 7),7 (100.0) n (%)
same,"AEs Total, Grade ¾",qd 1400 mg (n = 7),5 (71.4) n (%)
same,"Alanine aminotransferase increased, All grades",qd 1400 mg (n = 7),3 (42.9) n (%)
same,"Alanine aminotransferase increased, Grade ¾",qd 1400 mg (n = 7),1 (14.3) n (%)
same,"Blood alkaline phosphatase increased, All grades",qd 1400 mg (n = 7),2 (28.6) n (%)
same,"Blood alkaline phosphatase increased, Grade ¾",qd 1400 mg (n = 7),1 (14.3) n (%)
same,"Cancer pain, All grades",qd 1400 mg (n = 7),0 n (%)
same,"Cancer pain, Grade ¾",qd 1400 mg (n = 7),0 n (%)
same,"Decreased appetite, All grades",qd 1400 mg (n = 7),6 (85.7) n (%)
same,"Decreased appetite, Grade ¾",qd 1400 mg (n = 7),0 n (%)
same,"Diarrhea, All grades",qd 1400 mg (n = 7),7 (100.0) n (%)
same,"Diarrhea, Grade ¾",qd 1400 mg (n = 7),1 (14.3) n (%)
same,"Dysgeusia, All grades",qd 1400 mg (n = 7),2 (28.6) n (%)
same,"Dysgeusia, Grade ¾",qd 1400 mg (n = 7),0 n (%)
same,"Fatigue, All grades",qd 1400 mg (n = 7),4 (57.1) n (%)
same,"Fatigue, Grade ¾",qd 1400 mg (n = 7),0 n (%)
same,"Leukopenia, All grades",qd 1400 mg (n = 7),2 (28.6) n (%)
same,"Leukopenia, Grade ¾",qd 1400 mg (n = 7),1 (14.3) n (%)
same,"Lymphopenia, All grades",qd 1400 mg (n = 7),4 (57.1) n (%)
same,"Lymphopenia, Grade ¾",qd 1400 mg (n = 7),1 (14.3) n (%)
same,"Nausea, All grades",qd 1400 mg (n = 7),6 (85.7) n (%)
same,"Nausea, Grade ¾",qd 1400 mg (n = 7),0 n (%)
same,"Neutropenia, All grades",qd 1400 mg (n = 7),4 (57.1) n (%)
same,"Neutropenia, Grade ¾",qd 1400 mg (n = 7),3 (42.9) n (%)
same,"Pyrexia, All grades",qd 1400 mg (n = 7),0 n (%)
same,"Pyrexia, Grade ¾",qd 1400 mg (n = 7),0 n (%)
same,"Rash, All grades",qd 1400 mg (n = 7),4 (57.1) n (%)
same,"Rash, Grade ¾",qd 1400 mg (n = 7),0 n (%)
same,"Stomatitis, All grades",qd 1400 mg (n = 7),5 (71.4) n (%)
same,"Stomatitis, Grade ¾",qd 1400 mg (n = 7),0 n (%)
same,"Thrombocytopenia, All grades",qd 1400 mg (n = 7),3 (42.9) n (%)
same,"Vomiting, All grades",qd 1400 mg (n = 7),5 (71.4) n (%)
same,"Vomiting, Grade ¾",qd 1400 mg (n = 7),0 n (%)
same,"AEs Total, All grades",qd All patients (N = 27),27 (100.0) n (%)
same,"AEs Total, Grade ¾",qd All patients (N = 27),18 (66.7) n (%)
same,"Alanine aminotransferase increased, All grades",qd All patients (N = 27),6 (22.2) n (%)
same,"Alanine aminotransferase increased, Grade ¾",qd All patients (N = 27),1 (3.7) n (%)
same,"Blood alkaline phosphatase increased, All grades",qd All patients (N = 27),6 (22.2) n (%)
same,"Blood alkaline phosphatase increased, Grade ¾",qd All patients (N = 27),2 (7.4) n (%)
same,"Cancer pain, All grades",qd All patients (N = 27),7 (25.9) n (%)
same,"Cancer pain, Grade ¾",qd All patients (N = 27),1 (3.7) n (%)
same,"Decreased appetite, All grades",qd All patients (N = 27),24 (88.9) n (%)
same,"Decreased appetite, Grade ¾",qd All patients (N = 27),1 (3.7) n (%)
same,"Diarrhea, All grades",qd All patients (N = 27),25 (92.6) n (%)
same,"Diarrhea, Grade ¾",qd All patients (N = 27),1 (3.7) n (%)
same,"Dysgeusia, All grades",qd All patients (N = 27),8 (29.6) n (%)
same,"Dysgeusia, Grade ¾",qd All patients (N = 27),0 n (%)
same,"Fatigue, All grades",qd All patients (N = 27),17 (63.0) n (%)
same,"Fatigue, Grade ¾",qd All patients (N = 27),3 (11.1) n (%)
same,"Leukopenia, All grades",qd All patients (N = 27),6 (22.2) n (%)
same,"Leukopenia, Grade ¾",qd All patients (N = 27),2 (7.4) n (%)
same,"Lymphopenia, All grades",qd All patients (N = 27),10 (37.0) n (%)
same,"Lymphopenia, Grade ¾",qd All patients (N = 27),7 (25.9) n (%)
same,"Nausea, All grades",qd All patients (N = 27),22 (81.5) n (%)
same,"Nausea, Grade ¾",qd All patients (N = 27),0 n (%)
same,"Neutropenia, All grades",qd All patients (N = 27),8 (29.6) n (%)
same,"Neutropenia, Grade ¾",qd All patients (N = 27),4 (14.8) n (%)
same,"Pyrexia, All grades",qd All patients (N = 27),6 (22.2) n (%)
same,"Pyrexia, Grade ¾",qd All patients (N = 27),0 n (%)
same,"Rash, All grades",qd All patients (N = 27),11 (40.7) n (%)
same,"Rash, Grade ¾",qd All patients (N = 27),2 (7.4) n (%)
same,"Stomatitis, All grades",qd All patients (N = 27),18 (66.7) n (%)
same,"Stomatitis, Grade ¾",qd All patients (N = 27),1 (3.7) n (%)
same,"Thrombocytopenia, All grades",qd All patients (N = 27),8 (29.6) n (%)
same,"Thrombocytopenia, Grade ¾",qd All patients (N = 27),3 (11.1) n (%)
same,"Vomiting, All grades",qd All patients (N = 27),17 (63.0) n (%)
same,"Vomiting, Grade ¾",qd All patients (N = 27),0 n (%)
same,patients with study drug-related serious adverse events (SAEs),qd dosing group,two
same,patients with Grade 3 or 4 AEs,"qd dosing, 18 patients",66.7%
same,grade 3 or 4 lymphopenia suspected to be study drug-related,"qd group, four patients",14.8%
same,study drug discontinuation due to AEs,"qd group, seven patients",25.9%
same,grade 3 or 4 fatigue suspected to be study drug-related,"qd group, three patients",11.1%
same,grade 3 or 4 neutropenia suspected to be study drug-related,"qd group, three patients",11.1%
same,grade 3 or 4 rash suspected to be study drug-related,"qd group, two patients",7.4%
same,grade 3 or 4 thrombocytopenia suspected to be study drug-related,"qd group, two patients",7.4%
